According to US10617709B2, “miRNAs as novel therapeutic adjuvants and biomarkers for the prognosis and treatment of drug resistant breast cancers” (THE BOARD OF REGENTS OF THE UNIVERSITY OF TEXAS SYSTEM, priority 2012, dated 2020):

Test system: Tumor explants from TNBC patients
Test: Ex-vivo tumor explant model, Ki67 IHC
Set-up: species or system human
Conditions: for Ki67 levels: paclitaxel 1 μM, 48 hours
Method: To further establish the efficacy of these miRNAs in treating TNBC, we used ex-vivo tumor explant model. Freshly excised breast cancer tissues were dissected into 1 mm^3 specimens, placed on hydrated gelatin sponge in explant media supplemented with hydrocortisone and insulin at 37° C. in the CO2 incubator. Tumor explants from TNBC patients were treated with paclitaxel and tissues were gently removed, fixed in 10% neutral buffered formalin and processed for paraffin blocks. IHC analyses were conducted to determine the Ki67 levels. IHC of surgical specimens and explants reveal that explants retain the tissue architecture and proliferation properties of the original surgical specimen. […] FIG. 15.
Tumor explants growing on the gelatin sponge were treated with either sensitizer miRNA (75 nM) alone or paclitaxel (1 μM) alone or with miRNA (75 nM) and paclitaxel (1 μM) together. […] FIG. 16.

With `CC(=O)O[C@H]1C(=O)[C@@]2(C)[C@H]([C@H](OC(=O)c3ccccc3)[C@]3(O)C[C@H](OC(=O)[C@H](O)[C@@H](NC(=O)c4ccccc4)c4ccccc4)C(C)=C1C3(C)C)[C@]1(OC(C)=O)CO[C@@H]1C[C@@H]2O` [paclitaxel] the “response to paclitaxel (Ki67 staining)” value (advanced stage TNBC explant) was “not responsive”, the Ki67 staining (non-relapsed TNBC explant) was “inhibition of Ki67 staining” and the Ki67 levels (relapsed / advanced stage TNBC explants, sensitizer miRNA 75 nM) was “did not result in significant change”. The Ki67 levels (responsive TNBC (early stage cancer) explants) was “significant inhibition of Ki67 levels”.
